What was measured:
Panc02 cells = assay: MTT cytotoxicity assay, Panc02 monolayer culture; format: cell-based, murine
Protocol: (§1) The cytotoxic effect of the chemotherapeutic drug Gemcitabine (LC Laboratories, Woburn, Mass., USA) on Panc02 cell spheroids culture was compared to the cytotoxic effect on monolayer culture. For the cytotoxic assay, 1×10^4 cells suspended in complete medium were seeded in each well of a 96-well plate. Four (4)-day-old Panc02 spheroids were transferred to a new 96 ultra-low attachment well plate. The next day, the cells and spheroids were treated with different concentrations of Gemcitabine solution (0, 0.1, 1, 10, 25, 50, 100 μM) in sextuplicate wells. After incubating the cells with Gemcitabine for 48 h, 20 microliter (μl) of 3-(4,5-dimethylthiazol-2-yl)-2,5-diphenyltetrazolium bromide (MTT) solution (5 mg/ml) was added into each well, and the cells were incubated for 4 hours. […] Finally, absorbance was recorded at 570 nm using the Epoch™ microplate spectrophotometer (Bio-Tek Instruments, USA). […]
(§2) Parallel experiments were set with traditional 2D monolayer cell cultures to examine differential response of 2D and 3D cell cultures. Cell number and viability were measured using MTT assay after 2 days of Gemcitabine treatment. The IC50 value was calculated. […]

Panc02 cell spheroids = assay: MTT cytotoxicity assay, Panc02 cell spheroids culture; format: cell-based, murine
Protocol: as §1, §2

`Nc1ccn([C@@H]2O[C@H](CO)[C@@H](O)C2(F)F)c(=O)n1` [Gemcitabine] was tested, and the “response to the drug from regression curves, monolayer” value (Panc02 cells; 0-100 μM Gemcitabine, 48 h) was “dose-dependent response”, the IC50 (Panc02 cells; Mus musculus, Panc02, 2D monolayer culture, 48 h (2 days) Gemcitabine treatment) was 9.99 ± 0.07 µM and the “response to the drug from regression curves, spheroids” value (Panc02 cell spheroids; 0-100 μM Gemcitabine, 48 h) was “dose-dependent response”. For the same molecule, the IC50 (Panc02 cell spheroids; Mus musculus, 4-day-old acoustically assembled Panc02 3D spheroids, 48 h (2 days) Gemcitabine treatment) was 18.38 ± 0.09 µM.

Reference: patent US12590277B2, “High-throughput acoustofluidic fabrication of cell spheroids” (The Trustees of Indiana University, priority 2019, dated 2026)
